Tests used:
EP4 receptor = target: T1, EP4 receptor (Homo sapiens, UniProt P35408); experiment: hEP4 cAMP assay (BT549 breast cancer cells, HTRF cAMP, PGE2 stimulation); format: cell-based; conditions: antagonistic activity, PGE2 6 nM (EC80)
T1 construct: BT549 breast cancer cells, express high endogenous EP4 levels and very low EP2 levels; host or cells: BT549 breast cancer cells
Summary of the method: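 BT549 cells, with endogenous EP4 and very low EP2, were preincubated 45 min at room temperature with compound in HBSS/HEPES/BSA buffer with 2 mM IBMX. They were then stimulated 30 min with 6 nM PGE2 (EC80). cAMP was measured by HTRF competitive immunoassay against a calibrator; IC50 from duplicate dose-response as % of DMSO control.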

PTGER2 (EP2) = target: T2, PTGER2 (EP2) (Homo sapiens, UniProt P43116); experiment: hEP2 b-arrestin assay (PathHunter HEK 293 PTGER2 b-arrestin cells); format: cell-based; conditions: antagonistic activity, beta-arrestin assay; read-out: hEP2 b-arr IC50
T2 construct: host or cells: HEK 293 (PathHunter PTGER2 b-arrestin cell line)
T2 sequence (P43116 whole entry): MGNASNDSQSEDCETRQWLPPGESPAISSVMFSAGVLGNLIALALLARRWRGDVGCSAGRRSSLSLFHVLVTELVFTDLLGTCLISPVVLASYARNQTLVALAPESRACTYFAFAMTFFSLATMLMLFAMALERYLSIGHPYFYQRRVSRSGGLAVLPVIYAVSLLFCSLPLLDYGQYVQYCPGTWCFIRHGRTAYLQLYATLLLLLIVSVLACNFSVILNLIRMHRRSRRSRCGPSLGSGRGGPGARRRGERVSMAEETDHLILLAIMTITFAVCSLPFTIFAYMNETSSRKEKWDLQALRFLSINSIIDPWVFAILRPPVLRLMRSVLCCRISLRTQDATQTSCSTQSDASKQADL
Summary of the method: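 PathHunter HEK293 cells with ProLink-tagged EP2 and EA-β-arrestin 2 preincubated 15 min at 37 °C with compound (10 μM-2 nM or 1 μM-0.2 nM), then stimulated 120 min with 5 μM PGE2 (EC80). β-gal complementation read by chemiluminescence; IC50 from duplicate dose-response versus DMSO.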

T1 sequence (P35408 whole entry): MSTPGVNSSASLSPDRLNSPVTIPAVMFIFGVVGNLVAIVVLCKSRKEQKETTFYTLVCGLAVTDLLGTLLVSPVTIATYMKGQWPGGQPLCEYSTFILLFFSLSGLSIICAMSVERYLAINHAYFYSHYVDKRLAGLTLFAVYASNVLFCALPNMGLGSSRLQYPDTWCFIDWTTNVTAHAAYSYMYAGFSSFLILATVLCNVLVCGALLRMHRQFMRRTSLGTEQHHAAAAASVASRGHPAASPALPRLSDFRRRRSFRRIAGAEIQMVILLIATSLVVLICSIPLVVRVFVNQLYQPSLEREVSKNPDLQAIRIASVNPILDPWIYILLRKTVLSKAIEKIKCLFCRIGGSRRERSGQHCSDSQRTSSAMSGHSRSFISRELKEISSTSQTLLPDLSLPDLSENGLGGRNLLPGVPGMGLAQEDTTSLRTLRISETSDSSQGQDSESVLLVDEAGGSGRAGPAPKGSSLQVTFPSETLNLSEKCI

SMILES | IC50 (EP4 receptor) | IC50 (PTGER2 (EP2))
CCOc1cc(-c2cc(NCCc3c(C)sc4c(C)cc(F)cc34)ncn2)sc1C(=O)NS(N)(=O)=O [Example 156, 3-Ethoxy-5-(6-((2-(5-fluoro-2,7-dimethylbenzo[b]thiophen-3-yl)ethyl)amino)pyrimidin-4-yl)-N-sulfamoylthiophene-2-carboxamide] | 163 nM | 5 nM
CCc1nc(-c2cc(NCCc3c(C)sc4c(C)cc(F)cc34)ncn2)sc1C(=O)O [Example 161, 4-Ethyl-2-{6-[2-(5-fluoro-2,7-dimethyl-benzo[b]thiophen-3-yl)-ethylamino]-pyrimidin-4-yl}-thiazole-5-carboxylic acid] | 363 nM | 61 nM
CCOc1nc(-c2cc(NCCc3c(C)sc4c(C)cc(F)cc34)ncn2)sc1-c1noc(=O)[nH]1 [Example 162, 3-(4-Ethoxy-2-{6-[2-(5-fluoro-2,7-dimethyl-benzo[b]thiophen-3-yl)-ethylamino]-pyrimidin-4-yl}-thiazol-5-yl)-[1,2,4]oxadiazol-5(4H)-one [tautomeric form: 3-(4-ethoxy-2-(6-((2-(5-fluoro-2,7-dimethylbenzo[b]thiophen-3-yl)ethyl)amino)pyrimidin-4-yl)thiazol-5-yl)-[1,2,4]oxadiazol-5-ol]] | 51 nM | 6 nM
CCc1nc(-c2cc(NCCc3c(C)sc4c(C)cc(F)cc34)ncn2)sc1-c1noc(=O)[nH]1 [Example 163, 3-(4-Ethyl-2-{6-[2-(5-fluoro-2,7-dimethyl-benzo[b]thiophen-3-yl)-ethylamino]-pyrimidin-4-yl}-thiazol-5-yl)-[1,2,4]oxadiazol-5(4H)-one [tautomeric form: 3-(4-ethyl-2-(6-((2-(5-fluoro-2,7-dimethylbenzo[b]thiophen-3-yl)ethyl)amino)pyrimidin-4-yl)thiazol-5-yl)-[1,2,4]oxadiazol-5-ol]] | 429 nM | 26 nM
CCOc1cc(-c2cc(NCCc3c(C#N)sc4c(OC)cccc34)ncn2)ccc1CC(=O)O [Example 164, (4-{6-[2-(2-Cyano-7-methoxy-benzo[b]thiophen-3-yl)-ethylamino]-pyrimidin-4-yl}-2-ethoxy-phenyl)-acetic acid] | 17 nM | 504 nM

Further molecules by falling IC50 (EP4 receptor), results first:

IC50 (EP4 receptor) | IC50 (PTGER2 (EP2)) | SMILES
108 nM | 18 nM | CCOc1cc(-c2cc(NCCc3c(C)sc4c(C)cc(F)cc34)ncn2)ccc1-c1noc(=O)[nH]1 [Example 155, 3-(2-Ethoxy-4-{6-[2-(5-fluoro-2,7-dimethyl-benzo[b]thiophen-3-yl)-ethylamino]-pyrimidin-4-yl}-phenyl)-[1,2,4]oxadiazol-5(4H)-one [tautomeric form: 3-(2-ethoxy-4-(6-((2-(5-fluoro-2,7-dimethylbenzo[b]thiophen-3-yl)ethyl)amino)pyrimidin-4-yl)phenyl)-[1,2,4]oxadiazol-5-ol]]
69 nM | 8 nM | CCOc1cc(-c2cc(NCCc3c(C)sc4c(C)cc(F)cc34)ncn2)sc1C(=O)NS(C)(=O)=O [Example 157, N-(3-Ethoxy-5-{6-[2-(5-fluoro-2,7-dimethyl-benzo[b]thiophen-3-yl)-ethylamino]-pyrimidin-4-yl}-thiophene-2-carbonyl)-methanesulfonamide]
20 nM | 6 nM | CCOc1cc(-c2cc(NCCc3c(C)sc4c(C)cc(F)cc34)ncn2)sc1-c1nnn[nH]1 [Example 158, {6-[4-Ethoxy-5-(1H-tetrazol-5-yl)-thiophen-2-yl]-pyrimidin-4-yl}-[2-(5-fluoro-2,7-dimethyl-benzo[b]thiophen-3-yl)-ethyl]-amine]
18 nM | 15 nM | CCOc1nc(-c2cc(NCCc3c(C)sc4c(C)cc(F)cc34)ncn2)sc1C(=O)O [Example 160, 4-Ethoxy-2-{6-[2-(5-fluoro-2,7-dimethyl-benzo[b]thiophen-3-yl)-ethylamino]-pyrimidin-4-yl}-thiazole-5-carboxylic acid]
